# Measured values as given in patent US6500936B2, “Pluraflavins and derivatives thereof, process for their preparation and use thereof” (priority 2000, dated 2002).
# Several values for one entry are separate records, joined by “and”; a condition that tells them apart may be missing. Equal values may be shown once. Read-outs that look alike come from different tables or passages of the source.
# Assays:
# [1] = test system: Breast tumor cell line; assay: MTT antiproliferation assay, breast tumor cells; type: cell-based
# Excerpt: (§1) MTT, a water soluble tetrazolium salt, is converted to an insoluble purple formazan when dissolved by cleavage of the tetrazolium ring by dehydrogenase enzymes in active mitochondria. […] This method was used to quantitate proliferation in order to determine activity of potential chemotherapeutic compounds.
# (§2) All cells were maintained in RPMI 1640 (Life Technologies, Gaithersburg, Mdi) containing 10% heat-inactivated Fetal Bovine Serum, penicillin /streptomycin and supplemented with L-glutamine.
# (§3) Cells were plated in 96-well tissue culture plates at the following densities:
# (§4) Cells were allowed to adhere overnight at 37° C., 5% CO2.
# (§5) The cells were washed with fresh media and the compounds added to the cells in a final volume of 100 μl. The cells plus compound were allowed to incubate at 37° C., 5% CO2 for approximately 72 hours.
# (§6) At the desired time point, 25 μl of MTT (10 mg/ml in HBSS) were added to each well. Plates were incubated at 37° C. for 2-4 hours. MTT and media were removed and 200 μl DMSO were added per well. Readings were taken at 570 nm.
# [2] = test system: Prostate tumor cell line; assay: MTT antiproliferation assay, prostate tumor cells; type: cell-based
# Excerpt: as §1, §2, §3, §4, §5, §6
# [3] = test system: Colon tumor cell line; assay: MTT antiproliferation assay, colon tumor cells; type: cell-based
# Excerpt: as §1, §2, §3, §4, §5, §6
# [4] = test system: Lung tumor cell line; assay: MTT antiproliferation assay, lung tumor cells; type: cell-based
# Excerpt: as §1, §2, §3, §4, §5, §6
# [5] = test system: leukemia cells; assay: Soft agar assay against leukemia cells; type: cell-based
# [6] = test system: rat hepatoma cells ATCC CRL-1548; assay: Cytostatic activity on rat hepatoma cells (Cell Titer 96 Aqueous); type: cell-based; settings: read-out: IC50 (cytostatic effect)
# Protocol: (a) To determine the cytostatic activity, rat hepatoma cells were used which were obtained from the strain collection American Type Culture Collection under the number ATCC CRL-1548, Jo No.223 and 228 The strain was kept in the “MEM (EAGLE) with Glutamax” medium [GIBCO BRL No.4109-028] with 10% fetal calf serum [GIBCO BRL No. 10270-106] and 10 μl of penicillin-streptomycin [GIBCO BRL No. 15140-114]/ml. 96-well microtiterplates [Greiner, No. 15140-114] were used. Each well was initially charged with 140 μl of culturing nutrient solution and in each case inoculated with 215,000 cells. The plates were then incubated at 37° C. and 5% CO2 for 20-24 hours. A dilution series of pluraflavins with concentrations of 100, 50, 25, 12.5, 6.25, 3.125, 1.5625, 0.7813, 0.3906, 0.195, 0.094, 0.047 and 0 μM, which had been prepared beforehand, was then pipetted in the corresponding order. After a further incubation time of 22 hours at 37° C. in an atmosphere of 5% CO2, the liquid medium was then aspirated. The cells that remained were stained with 100 μl of RPMI 1640 [GIBCO BRL No. 32404-014]/well and 20 μl of Cell Titer 96 Aqueous [PROMEGA No. G5430]/well. Light absorption at 590 nm was measured directly after addition and after 2 hours of incubation, as above. The cytostatic effect was calculated from the change in light absorption.
# [7] = Chemical stability by medium / pH
# [8] = Solubility (appearance description)
SMILES,"IC50 ([1]; Breast cells, MTT, approximately 72 hours, read-out: IC50) [nM]","IC50 ([2]; Prostate cells, MTT, approximately 72 hours, read-out: IC50) [nM]","IC50 ([3]; Colon cells, MTT, approximately 72 hours, read-out: IC50) [nM]","IC50 ([4]; Lung cells, MTT, approximately 72 hours, read-out: IC50) [nM]","IC50 ([5]; soft agar assay, leukemia cells, read-out: IC50)","IC50 ([6]; rat hepatoma cells, 22 hours incubation) [nM]",stability in the alkaline range [7],stability in neutral and mildly acidic medium [7],solubility in polar organic solvents [8],solubility in water [8],stability in the strongly acidic range [7],"IC50 ([6]; Rattus norvegicus, 22 h) [nM]",IC50 ([1]; 72 h) [nM],IC50 ([2]; 72 h) [nM],IC50 ([3]; 72 h) [nM],IC50 ([4]; 72 h) [nM],IC50 [5] [nM]
"CN1CC[C@H](c2c(O)cc(O)c3c(=O)cc(-c4ccccc4Cl)oc23)[C@H](O)C1 [flavopiridol, reference compound]",90,80,30,90,500 nM and 600 nM,–,–,–,–,–,–,–,–,–,–,–,–
CC1OC(OC2C(C)OC(c3ccc4c(c3O)C(=O)c3c(cc(COC5CC(C)(N)C(O)C(C)O5)c5c(=O)cc(C(C)(O)C(C)O)oc35)C4=O)CC2N(C)C)CC(O)C1O (stereo not drawn) [pluraflavin B],–,–,–,–,–,< 50,unstable,stable,soluble,only sparingly soluble,–,–,–,–,–,–,–
CC1OC(OC2C(C)OC(c3ccc4c(c3O)C(=O)c3c(cc(C(=O)O)c5c(=O)cc(C(C)(O)C(C)O)oc35)C4=O)CC2N(C)C)CC(O)C1O (stereo not drawn) [pluraflavin E],–,–,–,–,–,–,unstable,stable,soluble,only sparingly soluble,unstable,–,–,–,–,–,–
CC1OC(OC2C(C)OC(c3ccc4c(c3O)C(=O)c3c(cc(COC5CC(C)(N)C(O)C(C)O5)c5c(=O)cc(C6(C)OC6C)oc35)C4=O)CC2N(C)C)CC(O)C1O (stereo not drawn) [pluraflavin A],–,–,–,–,–,–,unstable,stable,–,–,unstable,< 50,< 23,10,0.35,3,60
